According to patent publication US20100004247A1, “COMBINATION COMPRISING A MEK INHIBITOR AND AN AURORA KINASE INHIBITOR 188” (AstraZeneca AB, priority 2007, published 2010):

Columns and labels:
[1] = Pro-drug conversion to active moiety in human plasma; assay type: in vitro ADME
[2] = tested on: Calu-6 human lung tumour xenografts; assay: In vivo combination study in the Calu-6 human lung cancer xenograft model (tumour growth inhibition); design: species or system female athymic mice (Swiss nu/nu genotype); settings: Day 35; AZD1152 150 mg/kg/day s.c. infusion 2 days; AZD6244 25 mg/kg twice daily oral 14 days; 24 h gap in sequences
Method: To establish the in vivo efficacy of combination therapy of AZD1152 and AZD6244 in Calu-6 human lung xenograft model, experiments were conducted in female athymic mice (Swiss nu/nu genotype, ≧6 weeks of age). Calu-6 human lung tumour xenografts were established in mice by injecting 1×10^6 cells (100 μl volume containing 50% Matrigel®) subcutaneously in the dorsal flank. Tumour volumes were assessed using bilateral Vernier calliper measurement at least twice weekly and calculated using the formula (length×width)×√(length×width)×(π/6), where length was taken to be the longest diameter across the tumour and width the corresponding perpendicular. Mice were randomised into 4 treatment groups (10 mice/group) when the mean tumour volume reached approximately 0.2 cm^3. Following randomisation, mice were treated with drug vehicles for AZD1152 or AZD6244, AZD1152, AZD6244 or a combination of AZD1152 plus AZD6244 according to treatment schedules described below: […]
Tumour growth inhibition was assessed by comparison of the differences in tumour volume between control and treated groups on Day 35 of the study. The effects of combination treatment sequence were assessed by comparing any effect on tumour growth in the group of animals receiving AZD1152 and AZD6244 with tumour growth in the groups where animals received single agent therapy alone. […]

conversion of pro-drug to the active moiety AZD1152 HQPA [1] | Structure (SMILES) | growth inhibition of Calu-6 tumours compared to the vehicle-dosed group [2] [%]
rapidly and completely converted | CCN(CCCOc1ccc2c(Nc3cc(CC(=O)Nc4cccc(F)c4)n[nH]3)ncnc2c1)CCOP(=O)(O)O [AZD1152, 2-{[3-({4-[(5-{2-[(3-fluorophenyl)amino]-2-oxoethyl}-1H-pyrazol-3-yl)amino]quinazolin-7-yl}oxy)propyl](ethyl)amino}ethyl dihydrogen phosphate] | 94.7
– | Cn1cnc2c(F)c(Nc3ccc(Br)cc3Cl)c(C(=O)NOCCO)cc21 [AZD6244, 6-(4-Bromo-2-chloro-phenylamino)-7-fluoro-3-methyl-3H-benzoimidazole-5-carboxylic acid (2-hydroxy-ethoxy)-amide] | 57.8
